Results on one compound are retold here after ChEMBL document CHEMBL5120941 (ACS Med Chem Lett, 2022).

Values after ≈ are worked out from the molar mass of the structure shown.

The nature of series [1]: Aqueous solubility of the compound in deionized water at 25 degC. It is filed as physicochemical.
For series [2], the system named is Staphylococcus aureus. The series can be described thus: Antibacterial activity against Staphylococcus aureus ATCC 19636 infected ICR mouse septicemia model assessed as increase in animal's survival rate administered iv at 1 hr post-infection and measured after 48 hrs. In kind it is functional.
Series [3] is described as follows: AUC (0 to 24 hrs) in Sprague-Dawley rat at 10 mg/kg, iv by HLPC-MS/MS analysis. It is filed as ADME, organism-based. More on the design: time < 24 hr, dose 10 mg/kg, route iv. Particulars: in vivo.
For series [4], the system named is Staphylococcus aureus. The series can be described thus: Antibacterial activity against Staphylococcus aureus ATCC 19636 infected Sprague-Dawley rat peritonitis model assessed as increase in animal's survival rate administered iv at 1 hr post-infection and measured after 48 hrs. It is filed as functional.

The term solubility denotes the concentration that dissolves in the medium under given conditions. Usually ED50 stands for the dose that gives a 50% effect, or the effect in half of the subjects. As a reminder, the AUC(0-t) is exposure summed from dosing to a finite time, without extrapolation to infinity. A low value points to low exposure. The compound `O=C1C=CN(c2c(F)cc(N3C[C@H](CNc4ccon4)OC3=O)c(F)c2F)CC1` [CONTEZOLID] yielded a solubility in series [1] of 200 µg/mL (≈ 490 µM). Besides, the results for the ED50 in the series with Staphylococcus aureus [2] and in the series on Staphylococcus aureus [4] were 4.7 mg/kg and 10.3 mg/kg, respectively. This compound yielded an AUC(0-t) at 24 h in series [3] of 25400 ng·h/mL.
